Laboratory results published in US11673889B2, “Substituted imidazo[4,5-c][1,8]naphthyridines as phosphodiesterase inhibitors” (Nanjing Zhengxiang Pharmaceuticals Co., Ltd., priority 2019, dated 2023).

Assays:
human soluble ENPP1 [1] = biological target: T1, human soluble ENPP1 (Homo sapiens, UniProt P22413); assay: ENPP1 activity assay using p-Nitrophenyl-5′-TMP as a substrate; assay type: biochemical
T1 construct: 20 ng of human soluble ENPP1
T1 sequence (P22413 103-925 limits assumed): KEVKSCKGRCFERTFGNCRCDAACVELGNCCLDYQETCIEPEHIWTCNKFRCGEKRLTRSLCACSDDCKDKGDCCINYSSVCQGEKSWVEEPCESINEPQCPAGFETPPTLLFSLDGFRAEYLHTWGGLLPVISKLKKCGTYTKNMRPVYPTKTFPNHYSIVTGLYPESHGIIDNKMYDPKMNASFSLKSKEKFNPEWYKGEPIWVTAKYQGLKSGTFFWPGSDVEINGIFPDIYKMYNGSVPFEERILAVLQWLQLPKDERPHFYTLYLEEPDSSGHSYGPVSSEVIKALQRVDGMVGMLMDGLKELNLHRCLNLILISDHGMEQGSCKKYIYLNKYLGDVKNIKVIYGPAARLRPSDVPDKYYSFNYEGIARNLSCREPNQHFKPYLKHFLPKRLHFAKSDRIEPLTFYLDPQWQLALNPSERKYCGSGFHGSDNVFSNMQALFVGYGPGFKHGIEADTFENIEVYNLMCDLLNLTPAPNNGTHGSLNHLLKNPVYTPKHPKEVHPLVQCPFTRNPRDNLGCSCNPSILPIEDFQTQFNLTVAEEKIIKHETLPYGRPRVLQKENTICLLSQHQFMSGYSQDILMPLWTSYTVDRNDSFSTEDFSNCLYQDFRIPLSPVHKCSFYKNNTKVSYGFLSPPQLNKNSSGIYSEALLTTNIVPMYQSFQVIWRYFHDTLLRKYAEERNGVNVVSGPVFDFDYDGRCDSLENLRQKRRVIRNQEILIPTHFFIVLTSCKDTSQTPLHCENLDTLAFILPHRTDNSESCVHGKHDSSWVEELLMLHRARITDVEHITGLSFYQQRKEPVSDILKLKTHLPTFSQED
Method: ENPP1 is a transmembrane glycoprotein that hydrolyzes nucleotides and nucleotide derivatives with the formation of nucleotide-5′-monophosphates. ENPP1 hydrolyzes artificial phosphoric acid ester thymidine 5′monophosphate p-nitrophenyl ester (TMP-pNP) to nucleotide-5′-monophosphate and p-nitrophenol, which is a chromogenic product.
Load into a well with 20 ng of human soluble ENPP1 in 50 μL and incubate at room temperature with 25 μL inhibitor solution (4× Final Concentration) for 30 mins. Then, add 25 μL 2 mM TMP solution (2× Final Concentration) into the well, Incubate at RT for 1 hour.
(§1) The percent inhibition at each compound is calculated as follows: % inhibition=(ODMAX−ODCOMPOUND)/(ODMAX−ODMIN)*100. (MAX: absence of ENPP1 inhibitors control, MIN: blank control.)
The IC50 values for percent inhibition versus compound concentration were determined by fitting the inhibition curves using a four-parameter variable slope model in GraphPad Prism® 8.

human soluble ENPP1 [2] = biological target: T1, human soluble ENPP1; assay: ENPP1 activity assay using p-Nitrophenyl-5′-AMP as a substrate; assay type: biochemical
Method: AMP-pNP can be used as substrate of ENPP-1. Its hydrolysis products were nucleotide-5′-monophosphate and p-nitrophcnol, which is also a chromogenic product. The amount of p-nitrophenol product formed is measured using its absorbance at 405 nm, which is directly proportional to enzyme activity.
Load into a well with […] of human soluble ENPP1 in 50 μL and incubate at room temperature with 25 μL inhibitor solution (4× Final Concentration) for 30 mins prior adding 25 μL 3 mM AMP solution (2× Final Concentration) into the well, Incubate at RT for 1 hour. The amounts of released p-nitrophenolate were measured by reading OD value at 405 nm.
as §1
(§2) The IC50 values for percent inhibition versus compound concentration are determined by fitting the inhibition curves using a four-parameter variable slope model in GraphPad Prism® 8.

ENPP-1, MDA-MB-231 cells = biological target: T2, ENPP-1, MDA-MB-231 cells (Homo sapiens, UniProt P22413); assay: cell-based; conditions: for inhibition at 20 µM: MDA-MB-231, read-out: % Inhibition (at 20 μM)
T2 sequence (P22413 1-925): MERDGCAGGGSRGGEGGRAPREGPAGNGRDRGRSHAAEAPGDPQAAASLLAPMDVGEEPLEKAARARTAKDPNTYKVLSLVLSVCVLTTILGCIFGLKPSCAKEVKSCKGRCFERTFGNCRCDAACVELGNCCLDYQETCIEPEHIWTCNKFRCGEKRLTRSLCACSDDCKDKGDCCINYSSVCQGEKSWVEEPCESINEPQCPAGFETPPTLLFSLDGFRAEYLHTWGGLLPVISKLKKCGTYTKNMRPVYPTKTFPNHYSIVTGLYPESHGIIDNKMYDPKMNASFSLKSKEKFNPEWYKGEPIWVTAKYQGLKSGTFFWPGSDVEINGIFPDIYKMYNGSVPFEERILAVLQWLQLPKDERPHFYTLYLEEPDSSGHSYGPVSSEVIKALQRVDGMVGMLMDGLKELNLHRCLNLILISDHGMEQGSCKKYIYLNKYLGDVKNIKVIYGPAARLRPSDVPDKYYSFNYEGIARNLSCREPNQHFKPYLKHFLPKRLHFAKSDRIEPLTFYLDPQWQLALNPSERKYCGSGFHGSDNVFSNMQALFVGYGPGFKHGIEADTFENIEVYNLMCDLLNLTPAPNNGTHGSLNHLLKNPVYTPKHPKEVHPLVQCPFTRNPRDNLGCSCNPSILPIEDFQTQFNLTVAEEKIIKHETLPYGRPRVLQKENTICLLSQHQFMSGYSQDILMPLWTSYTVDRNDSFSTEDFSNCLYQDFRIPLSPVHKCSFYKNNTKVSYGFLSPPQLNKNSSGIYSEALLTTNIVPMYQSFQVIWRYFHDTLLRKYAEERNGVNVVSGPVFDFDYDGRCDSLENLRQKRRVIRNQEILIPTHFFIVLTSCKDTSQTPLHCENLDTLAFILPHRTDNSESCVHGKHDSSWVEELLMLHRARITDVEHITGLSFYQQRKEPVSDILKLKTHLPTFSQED
Method: ENPP-1 were mainly expressed on the surface of cell membrane where it hydrolytes 2′3′-cGAMP to generate 5′-GMP and 5′-AMP. ENPP-1 also has the ability to hydrolyzes artificial phosphoric acid ester TMP-pNP to nucleotide-5′-monophosphate and p-nitrophcnol there, which is a chromogenic product.
8 point of different concentrations of each inhibitor were prepared with the final assay concentrations starting at 20 μM. 3× series dilution by DMEM medium without FBS was applied. Prior to adding inhibitors, 75000 cells per well were incubated at 37° C., 5% CO2 in DMEM for 24 hours. After removing the supernatant medium, 50 μL inhibitor solution was added into each well with cultured cells and incubate at 37° C., 5% CO2 for 60 minutes.
as §2

[3] = substrate TMP-pNP, 20 ng human soluble ENPP1, Tris buffer pH 9.5, read-out: TMP-pNP (IC50)

| IC50 (human soluble ENPP1 [1]) [nM] | IC50 (human soluble ENPP1 [2]) [nM] | IC50 (ENPP-1, MDA-MB-231 cells) [nM] | inhibition at 20 µM (ENPP-1, MDA-MB-231 cells) [%] | IC50 (human soluble ENPP1 [1]; [3]) [nM] | Structure (SMILES) |
| --- | --- | --- | --- | --- | --- |
| 2.1 | 9.2 | 1900 | 74 | – | COCc1nc2cnc3nc(OC)ccc3c2n1Cc1ccc(S(N)(=O)=O)c(F)c1 [Compound 79, 2-fluoro-4-((7-methoxy-2-(methoxymethyl)-1H-imidazo[4,5-c][1,8]naphthyridin-1-yl)methyl)benzenesulfonamide] |
| 1.3 | 4 | 360 | 85 | – | COc1ccc2c(n1)nc(C)c1ncn(Cc3ccc(S(N)(=O)=O)cn3)c12 [Compound 87, 6-((7-methoxy-4-methyl-1H-imidazo[4,5-c][1,8]naphthyridin-1-yl)methyl)pyridine-3-sulfonamide] |
| 0.27 | 0.79 | 600 | 77 | – | COc1ccc2c(ncc3[nH]c(=O)n(Cc4ccc(S(N)(=O)=O)cn4)c32)n1 [Compound 99, 6-((7-methoxy-2-oxo-2,3-dihydro-1H-imidazo[4,5-c][1,8]naphthyridin-1-yl)methyl)pyridine-3-sulfonamide] |
| 7.4 | 21 | 0.31 | 80 | – | COc1ccc2c(n1)nc(C)c1nnn(Cc3ccc(S(N)(=O)=O)cn3)c12 [Compound 136, 6-((7-methoxy-4-methyl-1H-[1,2,3]triazolo[4,5-c][1,8]naphthyridin-1-yl)methyl)pyridine-3-sulfonamide] |
| 0.67 | 2.1 | 510 | 79 | – | COc1ccc2c(ncc3ncn(Cc4ccc(S(N)(=O)=O)cc4C#N)c32)n1 [Compound 69, 3-cyano-4-((7-methoxy-1H-imidazo[4,5-c][1,8]naphthyridin-1-yl)methyl)benzenesulfonamide] |
| – | 5.4 | 11000 | 57 | 1.7 | COc1ccc2c(ncc3[nH]c(=O)n(Cc4ccc(S(N)(=O)=O)nc4)c32)n1 [Compound 96, 5-((7-methoxy-2-oxo-2,3-dihydro-1H-imidazo[4,5-c][1,8]naphthyridin-1-yl)methyl)pyridine-2-sulfonamide] |
| 3 | 13 | 3400 | 71 | – | COc1ccc2c(ncc3ncn(Cc4ccc(S(N)(=O)=O)c(OC(F)(F)F)c4)c32)n1 [Compound 66, 4-((7-methoxy-1H-imidazo[4,5-c][1,8]naphthyridin-1-yl)methyl)-2-(trifluoromethoxy)benzenesulfonamide] |
| 16 | 66 | 5700 | 64 | – | COc1ccc2c(ncc3[nH]c(=O)n(Cc4c(F)cc(C(=O)O)cc4F)c32)n1 [Compound 108, 3,5-difluoro-4-((7-methoxy-2-oxo-2,3-dihydro-1H-imidazo[4,5-c][1,8]naphthyridin-1-yl)methyl)benzoic acid] |
| 0.53 | 1.8 | 900 | 82 | – | COc1ccc2c(ncc3ncn([C@H](C)c4ccc(S(N)(=O)=O)cc4)c32)n1 [Compound 54, (R)-4-(1-(7-methoxy-1H-imidazo[4,5-c][1,8]naphthyridin-1-yl)ethyl)benzenesulfonamide] |
| – | 0.32 | 56 | 78 | 0.11 | COc1ccc2c(ncc3c2n(Cc2c(F)cc(S(N)(=O)=O)cc2F)c(=O)n3CCO)n1 [Compound 115, 3,5-difluoro-4-((3-(2-hydroxyethyl)-7-methoxy-2-oxo-2,3-dihydro-1H-imidazo[4,5-c][1,8]naphthyridin-1-yl)methyl)benzenesulfonamide] |
| – | 5 | 250 | 72 | 1.1 | COc1ccc2c(n1)nc(C)c1[nH]c(=O)n(Cc3c(F)cc(S(N)(=O)=O)cc3F)c12 [Compound 113, 3,5-difluoro-4-((7-methoxy-4-methyl-2-oxo-2,3-dihydro-1H-imidazo[4,5-c][1,8]naphthyridin-1-yl)methyl)benzenesulfonamide] |
| – | 2.4 | 1800 | 66 | 0.61 | COc1ccc2c(c1)nnc1[nH]c(=O)n(Cc3ccc(S(N)(=O)=O)cc3F)c12 [Compound 123, 3-fluoro-4-((7-methoxy-2-oxo-2,3-dihydro-1H-imidazo[4,5-c]cinnolin-1-yl)methyl)benzenesulfonamide] |
| 6.9 | 23 | 4900 | 63 | – | COc1ccc2c(ncc3nc(CS(C)(=O)=O)n(Cc4ccc(S(N)(=O)=O)c(F)c4)c32)n1 [Compound 81, 2-fluoro-4-((7-methoxy-2-((methylsulfonyl)methyl)-1H-imidazo[4,5-c][1,8]naphthyridin-1-yl)methyl)benzenesulfonamide] |
| – | 0.99 | 70 | 80 | 0.3 | COc1ccc2c(ncc3[nH]c(=O)n(Cc4c(F)cc(S(N)(=O)=O)c(F)c4F)c32)n1 [Compound 112, 2,3,5-trifluoro-4-((7-methoxy-2-oxo-2,3-dihydro-1H-imidazo[4,5-c][1,8]naphthyridin-1-yl)methyl)benzenesulfonamide] |
| 8.1 | 34 | 16000 | 16 | – | COc1ccc2c(ncc3ccn(Cc4ccc(S(N)(=O)=O)cc4)c32)n1 [Compound 117, 4-((7-methoxy-1H-pyrrolo[3,2-c][1,8]naphthyridin-1-yl)methyl)benzenesulfonamide] |
